In patent publication US20250344734A1, “UNSATURATED FATTY ACIDS AND THEIR USE TO MODIFY TASTE” (Firmenich Incorporated, priority 2022, published 2025):

Columns and labels:
Type in all cases: cell-based
T2R08 (TAS2R08) = target: T1, T2R08 (TAS2R08) (Homo sapiens, UniProt Q9NYW2); experiment: FLIPR calcium assay, block of bitter agonist response, T2R08; settings: unsaturated fatty acid concentration of 200 µM, cells stimulated with known bitter agonist, read-out: percentage block of cellular response over baseline, 08
T1 construct: expressed in transfected cells; host or cells: cells expressing a promiscuous G protein (e.g., G16g44)
T1 sequence (Q9NYW2 1-309): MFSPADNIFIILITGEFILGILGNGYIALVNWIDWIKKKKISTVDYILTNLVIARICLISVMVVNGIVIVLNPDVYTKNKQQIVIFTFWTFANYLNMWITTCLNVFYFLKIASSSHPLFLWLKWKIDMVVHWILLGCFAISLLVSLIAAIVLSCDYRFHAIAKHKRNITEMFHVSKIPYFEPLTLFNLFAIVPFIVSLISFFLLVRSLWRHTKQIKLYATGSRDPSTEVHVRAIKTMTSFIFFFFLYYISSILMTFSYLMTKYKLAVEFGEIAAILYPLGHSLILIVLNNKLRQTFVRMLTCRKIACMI
Description: (§1) Cells expressing a promiscuous […] (e.g., G16g44) were transfected with vectors encoding 18 functional bitter receptor cDNAs, with one receptor per transfection. The cells were transfected directly in 384-well format high-density plates and incubated for 28 hours. Later, cells were loaded with the Ca-specific dye Fluo4-AM. After an incubation of 60 minutes, excess dye is washed off, and cells are stimulated with a known bitter agonist for each receptor and various unsaturated fatty acids. Changes in intracellular fluorescence are recorded using a FLIPR instrument. Bitter antagonists and corresponding receptors are identified based on percentage inhibition of agonist's activity on a given receptor.
(§2) The above protocol was carried out using 16 different unsaturated fatty acids. A particular T2R receptor was identified as being antagonized by a particular unsaturated fatty acid if it triggered a >25% block of agonist's cellular response at 200 μM concentration of unsaturated fatty acid. […] Table 2 indicates the sixteen (16) compounds tested by their compound number from Table 1 above. The 18 bitter taste receptors screened are the human bitter taste receptors we named. T2R01 (TAS2R01), T2R03 (TAS2R03), T2R04 (TAS2R04), T2R07 (TAS2R07), T2R08 (TAS2R08), T2R09 (TAS2R09), T2R10 (TAS2R10), T2R13 (TAS2R13), T2R14 (TAS2R14), T2R16 (TAS2R16), T2R54 (TAS2R39, T2R61 (TAS2R43), T2R63 (TA2R20), T2R64 (TAS2R31), T2R65 (TAS2R19), T2R67 (TAS2R50), T2R71 (TAS2R41), and T2R75 (TAS2R46). The corresponding IUPHAR nomenclature for each receptor is given in parenthesis. In Table 2, these receptors are identified by the last two digits. For example, T2R01 is indicated as 01. Table 2 reports the percentage block of cellular response over baseline at an unsaturated fatty acid concentration of 200 µM.

T2R10 (TAS2R10) = target: T2, T2R10 (TAS2R10) (Homo sapiens, UniProt Q9NYW0); experiment: FLIPR calcium assay, block of bitter agonist response, T2R10; settings: unsaturated fatty acid concentration of 200 µM, cells stimulated with known bitter agonist, read-out: percentage block of cellular response over baseline, 10
T2 construct: expressed in transfected cells; host or cells: cells expressing a promiscuous G protein (e.g., G16g44)
T2 sequence (Q9NYW0 1-307): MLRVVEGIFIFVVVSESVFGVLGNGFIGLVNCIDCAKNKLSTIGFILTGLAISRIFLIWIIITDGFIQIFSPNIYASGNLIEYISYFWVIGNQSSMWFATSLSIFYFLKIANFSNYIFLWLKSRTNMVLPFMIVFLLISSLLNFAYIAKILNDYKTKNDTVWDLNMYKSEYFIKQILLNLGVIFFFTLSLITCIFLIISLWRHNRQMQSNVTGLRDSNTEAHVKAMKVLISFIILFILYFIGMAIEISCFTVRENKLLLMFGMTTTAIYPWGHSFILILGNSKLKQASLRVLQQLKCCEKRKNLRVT
Description: as §1, §2

T2R01 (TAS2R01) = target: T3, T2R01 (TAS2R01) (Homo sapiens, UniProt Q9NYW7); experiment: FLIPR calcium assay, block of bitter agonist response, T2R01; settings: unsaturated fatty acid concentration of 200 µM, cells stimulated with known bitter agonist, read-out: percentage block of cellular response over baseline, 01
T3 construct: expressed in transfected cells; host or cells: cells expressing a promiscuous G protein (e.g., G16g44)
T3 sequence (Q9NYW7 1-299): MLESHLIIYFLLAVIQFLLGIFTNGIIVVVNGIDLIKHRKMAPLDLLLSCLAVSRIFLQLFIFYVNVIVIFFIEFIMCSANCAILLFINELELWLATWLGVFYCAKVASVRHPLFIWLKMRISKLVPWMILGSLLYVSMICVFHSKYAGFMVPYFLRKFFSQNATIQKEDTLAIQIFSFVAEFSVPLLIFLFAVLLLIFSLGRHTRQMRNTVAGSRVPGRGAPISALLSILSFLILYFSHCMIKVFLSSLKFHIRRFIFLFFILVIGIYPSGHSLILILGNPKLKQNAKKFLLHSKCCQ
Description: as §1, §2

T2R14 (TAS2R14) = target: T4, T2R14 (TAS2R14) (Homo sapiens, UniProt Q9NYV8); experiment: FLIPR calcium assay, block of bitter agonist response, T2R14; settings: unsaturated fatty acid concentration of 200 µM, cells stimulated with known bitter agonist, read-out: percentage block of cellular response over baseline, 14
T4 construct: expressed in transfected cells; host or cells: cells expressing a promiscuous G protein (e.g., G16g44)
T4 sequence (Q9NYV8 1-317): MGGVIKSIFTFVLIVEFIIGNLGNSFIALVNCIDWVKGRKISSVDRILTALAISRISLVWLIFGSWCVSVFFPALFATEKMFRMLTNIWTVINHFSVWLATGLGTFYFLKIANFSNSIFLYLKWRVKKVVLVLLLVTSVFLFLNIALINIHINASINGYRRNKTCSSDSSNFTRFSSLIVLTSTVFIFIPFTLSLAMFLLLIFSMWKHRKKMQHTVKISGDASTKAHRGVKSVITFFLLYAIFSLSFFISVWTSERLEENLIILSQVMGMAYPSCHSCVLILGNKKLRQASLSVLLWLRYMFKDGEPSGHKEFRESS
Description: as §1, §2

T2R54 (TAS2R39) = target: T5, T2R54 (TAS2R39 (Homo sapiens, UniProt P59534)); experiment: FLIPR calcium assay, block of bitter agonist response, T2R54; settings: unsaturated fatty acid concentration of 200 µM, cells stimulated with known bitter agonist
T5 construct: expressed in transfected cells; host or cells: cells expressing a promiscuous G protein (e.g., G16g44)
T5 sequence (P59534 1-338): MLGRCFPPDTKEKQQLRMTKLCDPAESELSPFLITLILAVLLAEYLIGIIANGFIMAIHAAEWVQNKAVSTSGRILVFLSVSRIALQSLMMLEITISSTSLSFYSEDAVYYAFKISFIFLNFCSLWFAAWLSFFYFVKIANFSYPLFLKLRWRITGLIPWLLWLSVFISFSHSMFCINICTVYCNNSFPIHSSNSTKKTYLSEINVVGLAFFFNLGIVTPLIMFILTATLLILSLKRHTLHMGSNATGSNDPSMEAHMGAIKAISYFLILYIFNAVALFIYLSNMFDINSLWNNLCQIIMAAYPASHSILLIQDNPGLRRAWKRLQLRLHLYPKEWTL
Description: as §1, §2

T2R75 (TAS2R46) = target: T6, T2R75 (TAS2R46) (Homo sapiens, UniProt P59540); experiment: FLIPR calcium assay, block of bitter agonist response, T2R75; settings: unsaturated fatty acid concentration of 200 µM, cells stimulated with known bitter agonist
T6 construct: expressed in transfected cells; host or cells: cells expressing a promiscuous G protein (e.g., G16g44)
T6 sequence (P59540 1-309): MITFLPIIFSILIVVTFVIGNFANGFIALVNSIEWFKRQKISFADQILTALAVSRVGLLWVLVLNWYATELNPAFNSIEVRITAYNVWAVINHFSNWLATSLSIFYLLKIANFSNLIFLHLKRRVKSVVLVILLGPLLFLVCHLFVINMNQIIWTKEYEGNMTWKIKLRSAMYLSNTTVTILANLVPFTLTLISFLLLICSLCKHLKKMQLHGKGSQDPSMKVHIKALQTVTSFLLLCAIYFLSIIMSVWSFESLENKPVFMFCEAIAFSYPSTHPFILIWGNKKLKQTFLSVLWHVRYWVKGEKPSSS
Description: as §1, §2

| inhibition at 200 µM (T2R08 (TAS2R08)) | inhibition at 200 µM (T2R10 (TAS2R10)) | inhibition at 200 µM (T2R01 (TAS2R01)) | inhibition at 200 µM (T2R14 (TAS2R14)) | percentage block of cellular response over baseline, 54 (T2R54 (TAS2R39)) | percentage block of cellular response over baseline, 75 (T2R75 (TAS2R46)) | SMILES |
| --- | --- | --- | --- | --- | --- | --- |
| > 25% | > 25% |  |  |  |  | CCC/C=C/C(=O)O [Compound 101] |
| > 40% | > 60% | > 35% | > 40% |  |  | CCCCCC/C=C/C(=O)O [Compound 104] |
| > 55% | > 95% | > 60% | 50% |  |  | CCCCCCC/C=C/C(=O)O [Compound 105] |
| > 70% | > 95% | 80% | 80% |  |  | CCCCCCCC/C=C/C(=O)O [Compound 106] |
| > 70% | > 95% | 90% | > 90% |  |  | CCCCCCCCC/C=C/C(=O)O [Compound 107] |
|  | > 25% |  |  |  |  | C=CCCCCCC(=O)O [Compound 115] |
| > 55% | > 70% | 50% | > 25% | >80% | 40% | C=CCCCCCCCC(=O)O [Compound 117] |
| 65% | > 75% | > 70% | > 65% | >80% | 75% | C=CCCCCCCCCC(=O)O [Compound 118] |
| 50% | > 95% | > 50% | > 40% |  |  | C=CCCCCCCCCCCC(=O)O [Compound 120] |
| > 25% | > 30% |  | > 25% |  |  | CC(C)/C=C/CCCCC(=O)O [Compound 123] |
| > 60% | > 80% | 55% | > 50% |  |  | CCCCCC/C=C\CCCC(=O)O [Compound 124] |
|  | 50% | > 30% |  | >90% | 35% | CC(C)=CCCC(C)CC(=O)O (stereo not drawn) [Compound 127] |
| > 25% | > 90% | 50% |  | >80% | 40% | CC(C)=CCCC(C)=CC(=O)O [Compound 128] |

| SMILES | inhibition at 200 µM (T2R08 (TAS2R08)) | inhibition at 200 µM (T2R10 (TAS2R10)) | inhibition at 200 µM (T2R01 (TAS2R01)) | inhibition at 200 µM (T2R14 (TAS2R14)) | percentage block of cellular response over baseline, 54 (T2R54 (TAS2R39)) | percentage block of cellular response over baseline, 75 (T2R75 (TAS2R46)) |
| --- | --- | --- | --- | --- | --- | --- |
| C=CCCCCCCC(=O)O [Compound 116] | > 40% | > 35% | > 25% |  |  |  |
